The source of these data is US12295962B2, “Polymorphic compounds and uses thereof” (AskAt Inc., priority 2018, dated 2025).

Format in all cases: in vivo, BALB/c mice
Assay [1] deals with 4T1 mouse breast cancer. Briefly: Anti-tumor activity in the 4T1 model, additional experiment (with anti-PD1, 7 mice per cohort). The following applies: during the period of dosing; Compound B 15 mg/kg BID; compared with vehicle group and anti-PD1 dosed alone; FIG. 27. On the procedure: The antitumor activity of Compound B as a single agent and combined with a mouse anti-PD1 antibody was evaluated in the 4T1 mouse breast cancer model grown in BALB/c mice in an additional experiment. Mice were inoculated subcutaneously in the right flank with 3×10^5 tumor cells. When tumors reached an average size of 97 mm^3 dosing was initiated. The dosing regimens in the 4 separate cohorts comprising 7 mice each are as follows: […]

The subject of assay [2] is immune cells of CT-26 tumors. Nature of the assay: Immune cell composition of CT-26 tumors by multi-color flow cytometry. Conditions: after 7 days dosing, Compound B 15 mg/kg BID p.o., anti-PD1 10 mg/kg Q3D i.p., vs vehicle. As for the experimental part:
The immune cell composition of Compound B (as described in example 14 above) as a single agent and combined with a mouse anti-PD1 antibody was evaluated in the CT-26 mouse colon adenocarcinoma model grown in BALB/c mice. Mice were inoculated subcutaneously in the right flank with 5×10^5 tumor cells. When tumors reached an average size of 85 mm^3 dosing was initiated. The dosing regimens in the 4 separate cohorts comprising 10 mice each are listed as follows:
After dosing animals for 7 days, tumors were resected and used to prepare single cell suspensions. Live cells representing tumor and immune cells were stained with cocktails of antibodies targeting multiple immune cell markers (anti-CD45, anti-CD3, anti-CD4, anti-CD8, anti-CD25, anti-FoxP3, anti-PD-1, anti-CD11c) conjugated to different fluorescent tags. The stained cells were fixed in 4% paraformaldehyde and quantified using a multi-color flow cytometer (Fortessa). The data was analyzed with FloJo software.
For orientation: Flow cytometry measures light scatter and fluorescence of single cells or particles in a stream.

Assay [3] relates to CT-26 mouse colon adenocarcinoma. Briefly: Anti-tumor activity in the CT-26 model, additional experiment (with anti-PD1, 7 mice per cohort). Conditions: during the period of dosing; single agents (Compound B 15 mg/kg BID p.o.; anti-PD1 10 mg/kg BIW i.p.); compared with vehicle group; FIG. 26. On the procedure: The antitumor activity of Compound B as a single agent and combined with a mouse anti-PD1 antibody was evaluated in the CT-26 mouse colon adenocarcinoma model grown in BALB/c mice in an additional experiment. Mice were inoculated subcutaneously in the right flank with 5×10^5 tumor cells. When tumors reached an average size of 91 mm^3 dosing was initiated. The dosing regimens in the 4 separate cohorts comprising 7 mice each are as follows: […]

In assay [4] the test system is 4T1 mouse breast cancer. Briefly: Anti-tumor activity in the 4T1 breast cancer mouse model (with anti-CTLA4). On the procedure: The antitumor activity of Compound B (as described in example 14 above) as a single agent and combined with a mouse anti-CTLA4 antibody was evaluated in the 4T1 mouse breast cancer model grown in BALB/c mice. Mice were inoculated subcutaneously in the right flank with 3×10^5 tumor cells. When tumors reached an average size of 100 mm^3 (7 days after tumor cell inoculation) dosing was initiated.

For assay [5], the system named is CT-26 mouse colon adenocarcinoma. Nature of the assay: Anti-tumor activity in the CT-26 colon adenocarcinoma mouse model (with anti-PD-1, 10 mice per cohort). Conditions: for tumor growth kinetics: during the period of dosing, compared with vehicle treated mice, FIG. 22. As for the experimental part:
The antitumor activity of Compound B as a single agent and combined with a mouse anti-PD-1 antibody was evaluated in the CT-26 mouse colon adenocarcinoma model grown in BALB/c mice. Mice were inoculated subcutaneously in the right flank with 5×10^5 tumor cells.
When tumors reached an average size of 71 mm^3 (6 days after tumor cell inoculation) dosing was initiated. The dosing regimens in the 8 separate cohorts comprising 10 mice each are as follows: […]

The mark [6] stands for this setting: 99 days after tumor inoculation, 10 mice per cohort.

For `C[C@H](NC(=O)c1cc(Cl)cnc1Oc1cccc(F)c1)c1ccc(C(=O)O)cc1` [Compound B], the tumor growth kinetics result in assay [1] was “less than that of the vehicle group and anti-PD1 when dosed alone”; in assay [3], “less than that of the vehicle group”; in assay [4] (during the period of dosing, single agents (Compound B 15 mg/kg BID; anti-CTLA4), relative to vehicle treated mice, FIG. 24), “decreased relative to the vehicle treated mice”; in assay [5] (15 mg/kg BID p.o.) it was “not notably different”; in assay [5] (15 mg/kg QD p.o.), “not notably different”. Further, in assay [2] (FIG. 28a), the “regulatory T cells (CD45, CD4, FoxP3, CD25 positive) in tumor” value is on record as “significant decrease”. Besides, the “percentage of dendritic cells (CD45, CD11c positive) in tumor” value in assay [2] (FIG. 28b) is listed as “increased percentage”. For the same molecule, the “percentage of activated T cells (CD45, CD3, CD8; CD25 expression) in tumor” value in assay [2] (FIG. 28c) is “did not”. The mice still alive result in assay [4] (47 days after tumor inoculation, 10 mice per group) is listed as “none”; in assay [5] (setting [6]), 1 out of 10. Further, the mice tumor free in assay [5] (setting [6]) is recorded as 1 out of 10.
